# Experimental data reported in patent US9353116B2, “Methods and compositions for kinase inhibition” (THE REGENTS OF THE UNIVERSITY OF CALIFORNIA, priority 2010, dated 2016).
# Where two headings read alike, the source gives them in different places.
# Legend:
# WT c-Src [1] = biological target: T1, WT c-Src (Gallus gallus (Chicken), UniProt P00523); experiment: In vitro kinase assay, WT c-Src; format: biochemical; settings: inhibitor preincubated with Src ten minutes prior to addition of ATP; read-out: WT c-Src IC50
# Method: (§1) In vitro kinase assays for c-Src variants were performed in 50 mM Tris (pH 8.0), 10 mM MgCl2 and 1 mg/mL BSA. When obtaining kinetic parameters (kcat, Km) kinase and peptide substrate (IYGEFKKK) (SEQ ID NO:51) concentrations were 2 nM and 500 μM, respectively, while ATP concentrations ranged from 2000-0.655 μM. Addition of nonradioactive ATP supplemented with ^32P ATP (3,000 Ci/mmol, NEN) was used to initiate kinase reactions. Time points were selected such that product formation never exceeded 10%. Reactions were quenched by spotting 3 μL quantities onto phosphocellulose sheets (P81, Whatman). Afterwards, the sheets were washed 3×5 minutes in 0.5% phosphoric acid and dried. Radioactivity was measured by phosphorimaging and recorded on a Typhoon fluorescence imager (Molecular Dynamics). Data were plotted as rate (min^−1) versus ATP concentration and fitted to the Michaelis-Menten equation, v=[(kcat)[S]]/(Km+[S]), using Kaleidagraph software (Synergy) to extract kinetic parameters. When obtaining IC50 values for the inhibitors, 2% (v/v) DMSO was included in kinase reactions. In these cases ATP, peptide, and enzyme concentrations were 15 nM, 100 μM and 5 nM, respectively, while inhibitor concentrations ranged from 10,000-0.610 nM. In all cases, a ten-minute preincubation step between the kinase and the inhibitor preceded addition of ATP and a fifteen-minute reaction. The data was fitted to a sigmoidal dose-response curve using Prism 4.0c (GraphPad Software) to obtain IC50 values.
# T338C c-Src [2] = biological target: T2, T338C c-Src (Gallus gallus (Chicken), UniProt P00523, T338C); experiment: In vitro kinase assay, T338C c-Src (c-Src-ES1); format: biochemical
# Method: as §1, with “In all cases, a ten-minute preincubation step between the kinase and the inhibitor preceded addition of ATP and a fifteen-minute reaction.” left out
# Toxicity profiles (LD50) = settings: FIG. 17-19
# c-Src-ES2 (T338C/V323A) = c-Src-ES2 (T338C/V323A) (Gallus gallus (Chicken), UniProt P00523, T338C/V323A); experiment: In vitro kinase assay, c-Src-ES2; format: biochemical
# Method: as §1
# c-Src-ES3 (T338C/V323S) = c-Src-ES3 (T338C/V323S) (Gallus gallus (Chicken), UniProt P00523, T338C/V323S); experiment: In vitro kinase assay, c-Src-ES3; format: biochemical; settings: ES3 = T338C/V323S; read-out: c-Src variant IC50 (nM) ES3
# Method: as §1
# v-Src-ES1 (I338C) = v-Src-ES1 (I338C) (Rous sarcoma virus (strain H-19), UniProt P25020, I338C); experiment: Inhibition assay with v-Src-ES1 transformed NIH-3T3 cells; format: cell-based
# Method: (§2) Curr Biol 8(5):257-266. Cells were grown to 60-90% confluence in DMEM supplemented with fetal bovine serum (10%), penicillin ‘G’ (100 units/ml) and streptomycin sulfate (100 μg/ml) (PenStrep, UCSF Cell Culture Facility) prior to treatment with kinase inhibitors dissolved in DMSO (final DMSO concentration, 0.5%). Following 1 hour of incubation with inhibitors at 37° C., cells were harvested in lysis buffer (50 mM Tris (pH 7.4), 300 mM NaCl, 5 mM EDTA, 1% triton, 0.02% NaN3, 1× complete mini protease inhibitor (Roche), 1 mM PMSF, 1×PHOS-stop (Roche), 0.02 μM microcystin, 2 mM sodium orthovanadate), normalized for concentration and analyzed by Western blot for global phosphotyrosine levels (4G10, Millipore, 1:1000). Levels of β-actin (β-actin Antibody, Cell Signaling, 1:1000) and v-Src (Src 32G6 rabbit mAb, Cell Signaling, 1:1000) were ascertained by Western blot.
# (§3) I338C (v-Src-ES1, SEQ ID NO:48), I338T (SEQ ID NO:49), I338G (v-Src-AS1, SEQ ID NO:50) and WT v-Src-transformed NIH-3T3 cell lines were generated. Unlike c-Src, v-Src is constitutively active and harbors an isoleucine gatekeeper. The I338T v-Src variant was generated for consistency with the in vitro c-Src studies. For each cell line, global levels of phosphotyrosine were analyzed (FIG. 7). […]
# I338T v-Src = I338T v-Src (Rous sarcoma virus (strain H-19), UniProt P25020, I338T); format: cell-based
# Method: as §2, §3
# T338C c-Src [3] = biological target: T2, T338C c-Src; experiment: Gel filtration and kinetic assay, T338C c-Src; format: biochemical; settings: 23 μM inhibitor, 25 minutes, then PD10 desalting
# Method: (§4) Inhibitors (final concentration 23 μM) were incubated with c-Src variants (final concentration 11.5 μM) in kinase reaction buffer (50 mM Tris pH 8, 100 mM NaCl, 1 mM DTT, 5% glycerol, 5% DMSO) for 25 minutes at room temperature. The solutions (2.6 mL total) were then passed over PD10 desalting columns (GE Healthcare) using the kinase reaction buffer for elution. Src concentrations were calculated using the extinction coefficient for c-Src (51.140 mM^−1cm^−1) {Seeliger, 2005 #100}. Kinase assays were performed as described in the experimental section at a final enzyme concentration of 10 nM.
# WT c-Src [4] = biological target: T1, WT c-Src; experiment: Gel filtration and kinetic assay, WT c-Src; format: biochemical; settings: 23 μM inhibitor, 25 minutes, then PD10 desalting
# Method: as §4
# T338C c-Src [5] = biological target: T2, T338C c-Src; experiment: Full protein mass spectrometry of covalent labeling; format: binding; settings: two equivalents of inhibitor
# Method: Protein labeling conditions: Kinase labeling reactions were performed by incubating 30 μL quantities of c-Src variants (in 50 mM Tris pH 8, 100 mM NaCl, 1 mM DTT, 5% glycerol) with two equivalents of inhibitor in DMSO (final DMSO concentration=2.4%). The covalent labeling reaction was quenched by removing 4 μL and adding it to 31 μL of 0.1% formic acid. The sample was then analyzed by ES1-oa-TOF mass spectrometry.
# 307 kinases = experiment: Kinome-wide profiling (SelectScreen Kinase Profiling Service); format: biochemical; settings: compounds at 1 μM, ATP at Km,app
# Method: The percent inhibition results in FIG. were generated with biochemical enzymatic kinase assays using the SelectScreen® Kinase Profiling Service (Life Technologies Corporation, Madison, Wis.). Compounds were assayed at 1 μM at an ATP concentration equal to the ATP Km,app for the assay following the detailed procedures described in the SelectScreen® Customer Protocol and Assay Conditions documents located at www.invitrogen.com/kinaseprofiling.
# Compounds that were profiled include, but are not limited to, 3, 4, 9, 13, and 20. […] The exocyclic amine mimics N6 of ATP and plays an important role in a hydrogen bonding interaction with the hinge region of kinases.
# [6] = inhibitor preincubated with Src ten minutes prior to addition of ATP, read-out: T338C c-Src IC50
Compound,IC50 (WT c-Src [1]) [nM],IC50 (T338C c-Src [2]; [6]) [nM],LD50 (Toxicity profiles (LD50)) [µM],time dependence of inhibition of T338C c-Src (T338C c-Src [2]),"IC50 (T338C c-Src [2]; ES1 = T338C, read-out: c-Src variant IC50 (nM) ES1) [nM]","IC50 (T338C c-Src [2]; T338C c-Src IC50 (nM), preincubation time 2 min) [nM]","IC50 (T338C c-Src [2]; T338C c-Src IC50 (nM), preincubation time 20 min) [nM]","IC50 (T338C c-Src [2]; T338C c-Src IC50 (nM), preincubation time 40 min) [nM]","IC50 (c-Src-ES2 (T338C/V323A); ES2 = T338C/V323A, read-out: c-Src variant IC50 (nM) ES2) [nM]",change of inhibitor potency upon second-site Val323 mutations (c-Src-ES2 (T338C/V323A); c-Src-ES2 and c-Src-ES3 relative to c-Src-ES1),IC50 (c-Src-ES3 (T338C/V323S)) [nM],inhibition of v-Src-ES1 in cells (global phosphotyrosine levels) (v-Src-ES1 (I338C)),inhibition of I338T v-Src in cells (global phosphotyrosine levels) (I338T v-Src),"inhibitory activity after gel filtration, T338C c-Src (T338C c-Src [3])","inhibitory activity after gel filtration, WT c-Src (WT c-Src [4])",covalent labeling / adduct formation by full protein mass spectrometry (T338C c-Src [5]),off-target profile in kinome-wide screen (307 kinases)
"C=CS(=O)(=O)Nc1cccc(Nc2ncnc3cc(OC)c(OC)cc23)c1 [Compound 19, N-(3-(6,7-dimethoxyquinazolin-4-ylamino)phenyl)ethenesulfonamide]",> 5000,1000,3.92,,,,,,,,,,,,,,
"C=CS(=O)(=O)Nc1cccc(Cc2nn(C(C)C)c3ncnc(N)c23)c1 [Compound 9, N-(3-((4-amino-1-isopropyl-1H-pyrazolo[3,4-d]pyrimidin-3-yl)methyl)phenyl)ethenesulfonamide]",> 5000,150,,time-dependent manner,150,981,309,138,207,not modulated appreciably,424,inhibited v-Src-ES1 in a dose-dependent manner,neither 9 nor 13 inhibited I338T v-Src,retained,lost,specific labeling of T338C relative to WT c-Src,relatively few off-target effects
